Source: US20190016689A1, “NOVEL FLUORINATED QUINAZOLINE DERIVATIVES AS EGFR INHIBITORS” (TRILLIUM THERAPEUTICS INC., priority 2016, published 2019)

Experiment: in vitro
Settings: human, Caco-2, pH 7.4
Procedure: At this stage of growth, cell monolayers were fully polarized and differentiated.
The permeability assay buffer was Hanks Balanced Salt Solution containing 10 mM HEPES and 15 mM glucose at a pH of 7.4. The dosing buffer contained 5 μM metoprolol (positive control), 5 μM atenolol (negative control) and 100 μM lucifer yellow. The buffer in the receiver chamber also contained 1% bovine serum albumin (BSA). The dosing solution concentration was 5 μM in the assay buffer. Digoxin (20 μM) was used as Pgp substrate control.
The known Pgp inhibitor was co-dosed at 50 μM with compound at 5 μM.
Cell monolayers were dosed on the apical side (A-to-B) or basolateral side (B-to-A) and incubated at 37° C. in a shaker (65 rpm). Samples were taken from the donor and receiver chambers at 120 minutes. Each determination was performed in duplicate.
Narrow-window mass extraction LC/MS analysis was performed for all samples from this study using a Waters Xevo quadrupole time-of-flight (QTof) mass spectrometer, to determine relative peak areas of parent compound. The percent of transported drug was calculated based on these peak areas, relative to the initial, dosing concentration.

Structure (SMILES) | Papp A→B at 120 min, 5 µM [×10⁻⁶ cm/s] | Papp B→A at 120 min, 5 µM [×10⁻⁶ cm/s]
CN(C)C/C=C/C(=O)Nc1cc2c(Nc3ccc(F)c(Cl)c3)ncnc2cc1O[C@H]1CCOC1 [Afatinib, reference compound] | 0.81 | 16
CN(C)C/C=C/C(=O)Nc1cc2c(Nc3cccc(Cl)c3F)ncnc2cc1OCCOC(F)F.O=C(O)/C=C\C(=O)O [Example I-5-MA, (E)-N-[4-(3-chloro-2-fluoro-anilino)-7-[2-(difluoromethoxy)ethoxy]quinazolin-6-yl]-4-(dimethylamino)but-2-enamide dimaleic acid salt] | 13.5 | 6.52
